Among the data in article PMC12490239, “Combining BET inhibition with SMAC mimetics restricts tumor growth and triggers immune surveillance in preclinical cancer models” (Cell Reports Medicine, 2025) are IC50 values, retold here.

A value given as a limit tells only on which side of the number the result lay.

Common to all, as to assay: cells
Common to all, as to design: CellTiter-Glo 2.0 luminescence proliferation/viability assay, single agents, human tumour cell line panel
(ATP-based viability assays read luminescence as a measure of living cells.)

In one assay the test system is A549. As to conditions: Homo sapiens, A549, 96 h; single agent; read-out: IC50 SMACm. Summed up: (§1)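 Human tumour cell lines were seeded into assay plates and held at 37°C with 5% CO2 for twenty-four hours, then exposed in triplicate to rising concentrations of the SMAC mimetic, from 4.5 nM to 10 μM, with DMSO as control. After 96 h, viability was read as CellTiter-Glo2.0 luminescence to derive single-agent IC50 values.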

For a further assay, the system named is AGS. The note with it: Homo sapiens, AGS, 96 h; single agent; read-out: IC50 SMACm. Summed up:
as §1

The subject of another assay is C10. The note with it: 96 h; single agent; read-out: IC50 SMACm. Summed up: as §1
For a further assay, the system named is COLO-320-HSR. As to conditions: Homo sapiens, COLO-320-HSR, 96 h; single agent; read-out: IC50 SMACm. Summed up:
as §1

The test system of a further assay is COLO60H. The note with it: 96 h; single agent; read-out: IC50 SMACm. In outline:
as §1

The next assay has as its system Gp2D. As to conditions: GP2d, 96 h; single agent; read-out: IC50 SMACm. In outline: as §1
The subject of a further assay is HLC-1. The note with it: 96 h; single agent; read-out: IC50 SMACm. Summed up: as §1
The test system of a further assay is JVE207. As to conditions: 96 h; single agent; read-out: IC50 SMACm. In outline:
as §1

In the next assay the test system is KM12C. As to conditions: Homo sapiens, KM12C, 96 h; single agent; read-out: IC50 SMACm. Summed up: as §1
The test system of another assay is KM12. As to conditions: Homo sapiens, KM12, 96 h; single agent; read-out: IC50 SMACm. Summed up: as §1
A further assay has as its system KP-3. The note with it: 96 h; single agent; read-out: IC50 SMACm. In outline: as §1
In the next assay the test system is NCI-H292. The note with it: Homo sapiens, NCI-H292, 96 h; single agent; read-out: IC50 SMACm. In outline:
as §1

The subject of a further assay is NCI-H520. The note with it: Homo sapiens, NCI-H520, 96 h; single agent; read-out: IC50 SMACm. In outline:
as §1

The next assay relates to SW837. The note with it: Homo sapiens, SW837, 96 h; single agent; read-out: IC50 SMACm. Summed up: as §1
Another assay has as its system SW900. The note with it: Homo sapiens, SW900, 96 h; single agent; read-out: IC50 SMACm. In outline: as §1

As for `CN[C@@H](C)C(=O)Nc1ccc(-c2c(-c3cccnc3OC)nc3cc(C)ccn23)c(C#Cc2ccc3c(C)nccc3c2)n1` [SMACm, BI 891065], the IC50 (commonly the midpoint of a concentration-inhibition curve) is greater than 10 µM in the assay with A549; 4.06 µM in the assay on AGS; 6.47 µM in the assay on C10; 2.86 µM in the assay on COLO-320-HSR; 4.37 µM in the assay with COLO60H; 3.62 µM in the assay on Gp2D. The 50% inhibitory concentration (IC50) in the assay on HLC-1 was determined as 5.83 µM; in the assay with JVE207 it was 7.2 µM; in the assay with KM12C, 5.22 µM; in the assay on KM12 it was 7.46 µM; in the assay with KP-3, 4.62 µM; in the assay on NCI-H292, 6.03 µM. For the same compound, the results for the IC50 in the assay on NCI-H520, in the assay with SW837 and in the assay on SW900 were 4.01 µM, 6.24 µM and 1.78 µM, respectively.
